biological target: human σ1 receptor (Homo sapiens, UniProt Q99720); experiment: Human σ1 receptor radioligand assay ([3H](+)-pentazocine, transfected HEK-293 membranes); assay type: binding; design: μ and σ1 dual binding: key to the marks not given beside the values; conditions: one class symbol for both Ki-σ1 (human σ1 receptor, A1) and Ki-μ (human μ-opioid receptor, A2)
Outline: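 Membranes from HEK-293 cells transfected with human σ1 receptor (7 μg) incubated with 5 nM [3H](+)-pentazocine in 50 mM Tris-HCl pH 8, 120 min at 37° C. Non-specific binding defined with 10 μM haloperidol. Bound radioligand separated by filtration, washed with ice-cold 10 mM Tris-HCl pH 7.4, and counted by scintillation.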

human σ1 receptor, sequence (Q99720 whole entry): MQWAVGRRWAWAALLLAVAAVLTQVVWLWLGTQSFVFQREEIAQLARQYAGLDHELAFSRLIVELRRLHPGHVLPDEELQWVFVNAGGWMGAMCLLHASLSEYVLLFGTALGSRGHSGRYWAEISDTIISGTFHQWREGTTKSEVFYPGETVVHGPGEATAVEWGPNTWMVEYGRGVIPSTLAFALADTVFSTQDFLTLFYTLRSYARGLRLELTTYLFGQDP

Row | SMILES | μ and σ1 dual binding
1 | CC(C)OCCN(C)[C@H]1CCN([C@@]2(C(=O)c3ccccn3)CCOC(C)(C)C2)C1 [Example 147, ((S)-4-((S)-3-((2-isopropoxyethyl)(methyl)amino)pyrrolidin-1-yl)-2,2-dimethyltetrahydro-2H-pyran-4-yl)(pyridin-2-yl)methanone] | ++
2 | CC(C)CCN(C)[C@@H]1CCN([C@]2(C(=O)c3ccccn3)CCOC(C)(C)C2)C1 [Example 149, ((R)-4-((R)-3-(isopentyl(methyl)amino)pyrrolidin-1-yl)-2,2-dimethyltetrahydro-2H-pyran-4-yl)(pyridin-2-yl)methanone] | ++
3 | C[C@H]1C[C@@](C(=O)c2ccccn2)(C2CCN(Cc3ccccc3)CC2)CCO1 [Example 152] | ++
4 | C[C@H]1C[C@@](C(=O)c2ccccn2)(N2CCN(Cc3ccccc3)CC2)CCO1 [Example 155, ((2S,4S)-4-(4-benzylpiperazin-1-yl)-2-methyltetrahydro-2H-pyran-4-yl)(pyridin-2-yl)methanone] | ++
5 | CC1(N2CCN(Cc3ccccc3)CC2)CCOCC1 [Example 156, 1-Benzyl-4-(4-methyltetrahydro-2H-pyran-4-yl)piperazine] | ++
6 | CC[C@@]1(N2CCN(CCOC(C)C)CC2)CCO[C@@H](C)C1 [Example 158, 1-((2S,4R)-4-ethyl-2-methyltetrahydro-2H-pyran-4-yl)-4-(2-isopropoxyethyl)piperazine] | ++
7 | CC[C@]1(N2CCN(CCC(C)C)CC2)CCO[C@@H](C)C1 [Example 159, 1-((2S,4S)-4-ethyl-2-methyltetrahydro-2H-pyran-4-yl)-4-isopentylpiperazine] | ++
8 | CC[C@@]1(N2CCN(CCC(C)C)CC2)CCO[C@@H](C)C1 [Example 160, 1-((2S,4R)-4-ethyl-2-methyltetrahydro-2H-pyran-4-yl)-4-isopentylpiperazine] | ++
9 | CC(C)CCN1CCN([C@@]2(C)CCO[C@@H](C)C2)CC1 [Example 161, 1-((2S,4S)-2,4-dimethyltetrahydro-2H-pyran-4-yl)-4-isopentylpiperazine] | ++
10 | CC(C)CCN1CCN([C@]2(C)CCO[C@@H](C)C2)CC1 [Example 162, 1-((2S,4R)-2,4-dimethyltetrahydro-2H-pyran-4-yl)-4-isopentylpiperazine] | ++
11 | CC[C@]1(N2CCN(Cc3ccccc3)CC2)CCO[C@@H](C)C1 [Example 163, 1-benzyl-4-((2S,4S)-4-ethyl-2-methyltetrahydro-2H-pyran-4-yl)piperazine] | ++
12 | CC[C@@]1(N2CCN(Cc3ccccc3)CC2)CCO[C@@H](C)C1 [Example 164, 1-benzyl-4-((2S,4R)-4-ethyl-2-methyltetrahydro-2H-pyran-4-yl)piperazine] | ++
13 | CCC1(C2CCN(Cc3ccccc3)CC2)CCOC(C)(C)C1 (centres unmarked) [Example 167, 1-Benzyl-4-(4-ethyl-2,2-dimethyltetrahydro-2H-pyran-4-yl)piperidine] | ++
14 | CC(C)CCN1CCN([C@@]2(C(=O)c3ccccn3)CCO[C@@H](C)C2)CC1 [Example 168] | ++
15 | CC(C)CCN1CCC([C@@]2(C(=O)c3ccccn3)CCO[C@@H](C)C2)CC1 [Example 171] | ++
16 | CC(C)OCCN1CCC([C@@]2(C(=O)c3ccccn3)CCO[C@@H](C)C2)CC1 [Example 172] | ++
17 | CCC1(C2CCN(CCc3ccccc3)CC2)CCOC(C)(C)C1 (centres unmarked) [Example 173, 4-(4-ethyl-2,2-dimethyltetrahydro-2H-pyran-4-yl)-1-phenethylpiperidine] | ++
18 | CCC1(N2CCN(Cc3ccc(C#N)cc3)CC2)CCOCC1 [Example 174, 4-((4-(4-ethyltetrahydro-2H-pyran-4-yl)piperazin-1-yl)methyl)benzonitrile] | ++
19 | CCC1(N2CCN(Cc3ccc(F)cc3)CC2)CCOCC1 [Example 175, 1-(4-ethyltetrahydro-2H-pyran-4-yl)-4-(4-fluorobenzyl)piperazine] | ++
20 | CCC1(N2CCN(CCOC(C)C)CC2)CCOCC1 [Example 176, 1-(4-ethyltetrahydro-2H-pyran-4-yl)-4-(2-isopropoxyethyl)piperazine] | ++
21 | CC(C)CCN1CCN(C2(C(=O)c3ccccn3)CCOCC2)CC1 [Example 177, (4-(4-isopentylpiperazin-1-yl)tetrahydro-2H-pyran-4-yl)(pyridin-2-yl)methanone] | ++
22 | CC(C)CCN1CCN(C2(C)CCOCC2)CC1 [Example 178, 1-isopentyl-4-(4-methyltetrahydro-2H-pyran-4-yl)piperazine] | ++
23 | CCC1(N2CCN(CCC(C)C)CC2)CCOCC1 [Example 180, 1-(4-ethyltetrahydro-2H-pyran-4-yl)-4-isopentylpiperazine] | ++
24 | O=C(c1ccccn1)C1(N2CCN(Cc3ccc(F)cc3)CC2)CCOCC1 [Example 181, (4-(4-(4-fluorobenzyl)piperazin-1-yl)tetrahydro-2H-pyran-4-yl)(pyridin-2-yl)methanone] | ++
25 | CC1(N2CCN(Cc3ccc(F)cc3)CC2)CCOCC1 [Example 182, 1-(4-fluorobenzyl)-4-(4-methyltetrahydro-2H-pyran-4-yl)piperazine] | ++
26 | CC1(N2CCN(Cc3ccc(C#N)cc3)CC2)CCOCC1 [Example 183, 4-((4-(4-methyltetrahydro-2H-pyran-4-yl)piperazin-1-yl)methyl)benzonitrile] | ++
27 | CC(C)OCCN1CCN(C2(C)CCOCC2)CC1 [Example 184, 1-(2-isopropoxyethyl)-4-(4-methyltetrahydro-2H-pyran-4-yl)piperazine] | ++
28 | CC(C)OCCN1CCN(C2(C(=O)c3ccccn3)CCOCC2)CC1 [Example 185, (4-(4-(2-isopropoxyethyl)piperazin-1-yl)tetrahydro-2H-pyran-4-yl)(pyridin-2-yl)methanone] | ++
29 | CC(C)OCCN1CCN([C@@]2(C(=O)c3ccccn3)CCO[C@@H](C)C2)CC1 [Example 190, ((2S,4S)-4-(4-(2-isopropoxyethyl)piperazin-1-yl)-2-methyltetrahydro-2H-pyran-4-yl)(pyridin-2-yl)methanone] | ++

same assay, conditions: one class symbol for both Ki-σ1 (human σ1 receptor, A1) and Ki-μ (human μ-opioid receptor, A2); read-out: μ and σ1 dual binding

Row | SMILES | Ki
30 | C[C@@H]1C[C@](C(=O)c2ccccn2)(N2CCN(Cc3ccccc3)CC2)CCO1 [Example 154, ((2R,4R)-4-(4-benzylpiperazin-1-yl)-2-methyltetrahydro-2H-pyran-4-yl)(pyridin-2-yl)methanone] | < 500 nM
31 | CC1(C2CCN(Cc3ccccc3)CC2)CCOCC1 [Example 165, 1-benzyl-4-(4-methyltetrahydro-2H-pyran-4-yl)piperidine] | > 500 nM
32 | CCC1(C2CCN(Cc3ccccc3)CC2)CCOCC1 [Example 166, 1-benzyl-4-(4-ethyltetrahydro-2H-pyran-4-yl)piperidine] | > 500 nM
33 | CC(C)CCN1CCN([C@]2(C(=O)c3ccccn3)CCO[C@@H](C)C2)CC1 [Example 169] | < 500 nM
34 | N#Cc1cc(CN2CCN(C3(C(=O)c4ccccn4)CCOCC3)CC2)ccc1F [Example 188, 2-fluoro-5-((4-(4-picolinoyltetrahydro-2H-pyran-4-yl)piperazin-1-yl)methyl)benzonitrile] | > 500 nM
35 | CC(C)OCCN1CCN([C@]2(C(=O)c3ccccn3)CCO[C@H](C)C2)CC1 [Example 189, ((2R,4R)-4-(4-(2-isopropoxyethyl)piperazin-1-yl)-2-methyltetrahydro-2H-pyran-4-yl)(pyridin-2-yl)methanone] | > 500 nM
36 | N#Cc1ccc(CN2CCN(C3(C4CC4)CCOCC3)CC2)cc1 [Example 191, 4-((4-(4-cyclopropyltetrahydro-2H-pyran-4-yl)piperazin-1-yl)methyl)benzonitrile] | > 500 nM
37 | N#Cc1ccc(CN2CCN(C3(C(=O)c4ccccn4)CCOCC3)CC2)cc1F [Example 192, 2-fluoro-4-((4-(4-picolinoyltetrahydro-2-pyran-4-yl)piperazin-1-yl)methyl)benzonitrile] | > 500 nM
38 | N#Cc1cccc(CN2CCN(C3(C(=O)c4ccccn4)CCOCC3)CC2)c1 [Example 193, 3-((4-(4-picolinoyltetrahydro-2H-pyran-4-yl)piperazin-1-yl)methyl)benzonitrile] | > 500 nM

same assay, conditions: μ and σ1 dual binding, one class symbol for both Ki-σ1 (human σ1 receptor, A1) and Ki-μ (human μ-opioid receptor, A2)

Row | SMILES | Ki
39 | CC(C)CCN(C)[C@@H]1CCN([C@@]2(C(=O)c3ccccn3)CCOC(C)(C)C2)C1 [Example 148, ((S)-4-((R)-3-(isopentyl(methyl)amino)pyrrolidin-1-yl)-2,2-dimethyltetrahydro-2H-pyran-4-yl)(pyridin-2-yl)methanone] | < 500 nM
40 | CC(C)CCN(C)[C@H]1CCN([C@]2(C(=O)c3ccccn3)CCOC(C)(C)C2)C1 [Example 150, ((R)-4-((S)-3-(isopentyl(methyl)amino)pyrrolidin-1-yl)-2,2-dimethyltetrahydro-2H-pyran-4-yl)(pyridin-2-yl)methanone] | < 500 nM
41 | CC(C)CCN(C)[C@H]1CCN([C@@]2(C(=O)c3ccccn3)CCOC(C)(C)C2)C1 [Example 151, ((S)-4-((S)-3-(isopentyl(methyl)amino)pyrrolidin-1-yl)-2,2-dimethyltetrahydro-2H-pyran-4-yl)(pyridin-2-yl)methanone] | < 500 nM
42 | C[C@H]1C[C@](C(=O)c2ccccn2)(C2CCN(Cc3ccccc3)CC2)CCO1 [Example 153] | < 500 nM
43 | CC[C@]1(N2CCN(CCOC(C)C)CC2)CCO[C@@H](C)C1 [Example 157, 1-((2S,4S)-4-ethyl-2-methyltetrahydro-2H-pyran-4-yl)-4-(2-isopropoxyethyl)piperazine] | < 100 nM
44 | C[C@H]1C[C@@](C(=O)c2ccccn2)(N2CCN(CCc3ccccc3F)CC2)CCO1 [Example 170] | < 500 nM
